Earlier results in patent US11672748B2, “Aqueous hair conditioner compositions containing solubilized anti-dandruff actives” (The Procter & Gamble Company, priority 2020, dated 2023).

Conditions: in water

SMILES | Solubility in H2O (g/L)
C=CC(C)CCCC(C)(C)O (centres unmarked) [Dihydro Myrcenol] | Negligible (lower than 0.1) g/L
CCCCCCCCCCCC(=O)N(C)CC(=O)OC(C)C [Isoropyl N-Lauroyl Sarcosinate] | (lower than 0.1) g/L
